Drawing on BindingDB's records for doi:10.1016/0960-894X(96)00081-9 (1996), this text covers Ki for three compounds.

Usually Ki stands for the dissociation constant of the complex between target and ligand, obtained from inhibition or displacement. Read a low Ki as a stronger hold on the target.

The target of experiment [1] is T1, Alpha-1A/Alpha-1B/Alpha-1D adrenergic receptor (Rattus norvegicus, UniProt P15823+P43140+P23944).
T1 sequence (P15823 whole entry): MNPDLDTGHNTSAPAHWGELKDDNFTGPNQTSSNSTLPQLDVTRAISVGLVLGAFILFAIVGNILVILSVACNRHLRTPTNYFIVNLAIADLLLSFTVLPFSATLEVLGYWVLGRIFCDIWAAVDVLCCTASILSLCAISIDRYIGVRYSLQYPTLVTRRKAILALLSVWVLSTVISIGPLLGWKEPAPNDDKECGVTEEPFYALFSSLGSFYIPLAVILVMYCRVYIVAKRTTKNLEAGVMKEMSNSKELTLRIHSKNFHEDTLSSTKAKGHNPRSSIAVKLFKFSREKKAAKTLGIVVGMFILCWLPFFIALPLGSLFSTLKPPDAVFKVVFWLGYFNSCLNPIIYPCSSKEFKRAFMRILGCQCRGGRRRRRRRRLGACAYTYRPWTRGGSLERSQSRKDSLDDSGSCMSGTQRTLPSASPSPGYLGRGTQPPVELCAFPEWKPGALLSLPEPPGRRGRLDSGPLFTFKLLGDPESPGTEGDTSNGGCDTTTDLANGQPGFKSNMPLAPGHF
T1 sequence (P43140 whole entry): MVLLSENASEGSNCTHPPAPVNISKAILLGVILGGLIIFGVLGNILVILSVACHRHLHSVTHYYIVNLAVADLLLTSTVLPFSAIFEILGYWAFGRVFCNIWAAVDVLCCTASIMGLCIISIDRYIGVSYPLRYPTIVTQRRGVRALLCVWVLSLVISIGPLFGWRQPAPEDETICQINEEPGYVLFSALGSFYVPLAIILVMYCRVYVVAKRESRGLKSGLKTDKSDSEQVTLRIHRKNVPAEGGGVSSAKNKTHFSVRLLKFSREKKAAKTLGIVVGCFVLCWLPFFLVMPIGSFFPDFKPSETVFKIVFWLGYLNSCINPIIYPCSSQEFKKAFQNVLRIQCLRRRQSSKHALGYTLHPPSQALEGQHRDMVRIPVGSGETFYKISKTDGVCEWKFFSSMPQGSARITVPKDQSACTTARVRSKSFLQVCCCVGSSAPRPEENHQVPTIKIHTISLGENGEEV
T1 sequence (P23944 whole entry): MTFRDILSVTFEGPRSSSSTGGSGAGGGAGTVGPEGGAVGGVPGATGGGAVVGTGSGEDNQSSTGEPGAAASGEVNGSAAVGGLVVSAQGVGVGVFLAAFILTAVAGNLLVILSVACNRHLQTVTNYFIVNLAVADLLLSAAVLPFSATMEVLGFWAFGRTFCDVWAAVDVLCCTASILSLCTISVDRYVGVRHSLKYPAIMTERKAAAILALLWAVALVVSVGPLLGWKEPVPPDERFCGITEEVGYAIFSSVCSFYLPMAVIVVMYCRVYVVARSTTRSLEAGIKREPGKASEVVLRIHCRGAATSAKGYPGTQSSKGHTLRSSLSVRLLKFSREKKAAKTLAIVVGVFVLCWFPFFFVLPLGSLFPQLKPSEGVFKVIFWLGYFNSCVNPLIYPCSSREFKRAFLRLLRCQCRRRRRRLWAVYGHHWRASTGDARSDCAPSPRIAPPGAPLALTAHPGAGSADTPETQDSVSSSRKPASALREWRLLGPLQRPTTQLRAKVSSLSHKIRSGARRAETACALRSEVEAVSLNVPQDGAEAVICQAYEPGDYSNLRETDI
Kind of experiment: Binding affinity at Alpha-1 adrenergic receptor in rat cerebral cortex membranes by [3H]prazosin displacement.

The target of experiment [2] is T2, 5-hydroxytryptamine receptor 1A (Rattus norvegicus, UniProt P19327).
T2 sequence (P19327 whole entry): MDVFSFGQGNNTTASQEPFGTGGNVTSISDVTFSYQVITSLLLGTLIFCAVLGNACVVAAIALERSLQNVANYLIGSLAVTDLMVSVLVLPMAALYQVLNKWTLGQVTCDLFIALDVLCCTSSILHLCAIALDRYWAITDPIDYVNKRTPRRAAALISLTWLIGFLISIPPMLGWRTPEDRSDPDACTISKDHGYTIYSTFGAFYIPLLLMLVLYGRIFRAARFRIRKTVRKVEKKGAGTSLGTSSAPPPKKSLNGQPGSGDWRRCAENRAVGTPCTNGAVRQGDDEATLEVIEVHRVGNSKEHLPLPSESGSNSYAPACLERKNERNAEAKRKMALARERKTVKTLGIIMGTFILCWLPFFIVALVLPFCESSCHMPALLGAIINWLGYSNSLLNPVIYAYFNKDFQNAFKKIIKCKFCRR
Kind of experiment: ChEBML_841.
Experimental: Compound was evaluated for its ability to displace [3H]8-OH-DPAT from serotonin 5-hydroxytryptamine 1A receptor in rat cerebral cortex membranes

Molecules are shown by their SMILES.

`COc1ccccc1N1CCN(Cn2c(O)c3n(c2=O)CCCC3)CC1` [2-[4-(2-Methoxy-phenyl)-piperazin-1-ylmethyl]-tetrahydro-imidazo[1,5-a]pyridine-1,3-dione] registered a Ki in experiment [1] above 1 µM.
Same read-out and setting: in the case of `O=c1n(CCCCN2CCN(c3ccccc3)CC2)c(O)c2n1CCCC2` [2-[4-(4-Phenyl-piperazin-1-yl)-butyl]-tetrahydro-imidazo[1,5-a]pyridine-1,3-dione] it was 0.019 µM.
For `O=c1n(CCCN2CCN(c3cccc(Cl)c3)CC2)c(O)c2n1CCCC2` [2-{3-[4-(3-Chloro-phenyl)-piperazin-1-yl]-propyl}-tetrahydro-imidazo[1,5-a]pyridine-1,3-dione], the Ki is 0.018 µM in experiment [1] and 0.054 µM in experiment [2].
